Values quoted from earlier work, collected in patent US9078864B2, “Agonists for antimicrobial peptide systems” (priority 2008, dated 2015).

System: shigellosis
Settings: patients with shigellosis; unit not given; cited from earlier work

## CC(C)(C)C(=O)OCOC(=O)[C@@H]1N2C(=O)[C@@H](/N=C/N3CCCCCC3)[C@H]2SC1(C)C [pivmecillinam]
  duration of diarrhoea (mean±SD): 3.2±1.8
